Experimental data: ChEMBL document CHEMBL1201862, “PubChem BioAssay data set” (2004)
The source made the active and inactive calls.

Key:
[1] = molecular target: G-protein coupled receptor 55 (Homo sapiens, UniProt Q9Y2T6); experiment: GPR55 antagonists blocking LPI-driven arrestin recruitment, primary screen, imaging, U2OS, beta-arrestin-GFP, LPI agonist (AID 2013); type: functional;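 further: antagonist potency measured as reduced agonist-driven arrestin aggregation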
[2] = molecular target: Beta-galactosidase (Escherichia coli, UniProt Q8VNN2); experiment: beta-galactosidase enzyme inhibitors and activators, dose response, artefact control for CCR6 antagonist project, biochemical, E. coli enzyme, set 3 (AID 504712); type: functional
Beta-galactosidase, sequence (Q8VNN2 whole entry): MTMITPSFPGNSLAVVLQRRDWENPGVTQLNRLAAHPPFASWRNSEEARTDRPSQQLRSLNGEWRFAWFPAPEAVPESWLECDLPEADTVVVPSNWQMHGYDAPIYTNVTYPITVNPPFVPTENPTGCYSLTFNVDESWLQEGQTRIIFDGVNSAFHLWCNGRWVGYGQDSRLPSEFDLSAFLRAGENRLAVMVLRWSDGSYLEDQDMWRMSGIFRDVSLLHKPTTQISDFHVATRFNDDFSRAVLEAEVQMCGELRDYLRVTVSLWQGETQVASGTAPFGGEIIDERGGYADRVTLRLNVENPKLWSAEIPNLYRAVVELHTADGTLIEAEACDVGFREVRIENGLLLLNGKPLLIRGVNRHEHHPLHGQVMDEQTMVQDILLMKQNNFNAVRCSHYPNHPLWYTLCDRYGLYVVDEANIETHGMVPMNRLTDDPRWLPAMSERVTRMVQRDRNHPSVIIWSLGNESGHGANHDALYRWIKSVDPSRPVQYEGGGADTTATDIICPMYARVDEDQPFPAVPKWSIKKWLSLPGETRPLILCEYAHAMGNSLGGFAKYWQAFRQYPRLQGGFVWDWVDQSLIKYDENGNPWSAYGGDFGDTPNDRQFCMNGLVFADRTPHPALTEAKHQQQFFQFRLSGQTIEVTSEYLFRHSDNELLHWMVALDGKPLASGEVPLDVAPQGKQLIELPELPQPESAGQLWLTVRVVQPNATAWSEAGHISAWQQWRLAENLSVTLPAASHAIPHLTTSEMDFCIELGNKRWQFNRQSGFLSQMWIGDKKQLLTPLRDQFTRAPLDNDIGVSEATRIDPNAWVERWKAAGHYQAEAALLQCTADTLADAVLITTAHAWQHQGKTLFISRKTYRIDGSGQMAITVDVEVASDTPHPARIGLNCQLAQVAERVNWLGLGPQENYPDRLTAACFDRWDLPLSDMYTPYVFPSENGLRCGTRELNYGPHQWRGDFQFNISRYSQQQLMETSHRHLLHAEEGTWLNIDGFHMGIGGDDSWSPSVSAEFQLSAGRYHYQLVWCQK

[3] = molecular target: T1, Bcl-2-related protein A1 (Mus musculus, UniProt Q07440); type: functional;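 further: confirmatory dose–response counterscreen on Bfl-1, used to check hits from a UBC13 polyubiquitin inhibitor campaign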
T1 sequence (Q07440 whole entry): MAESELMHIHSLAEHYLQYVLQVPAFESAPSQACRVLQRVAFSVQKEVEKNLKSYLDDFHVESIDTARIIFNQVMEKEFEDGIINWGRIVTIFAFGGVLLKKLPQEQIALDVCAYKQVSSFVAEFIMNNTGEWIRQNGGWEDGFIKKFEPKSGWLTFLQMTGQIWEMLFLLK

[4] = molecular target: T2, Ubiquitin-conjugating enzyme E2 N (Homo sapiens, UniProt P61088); type: functional
T2 sequence (P61088 whole entry): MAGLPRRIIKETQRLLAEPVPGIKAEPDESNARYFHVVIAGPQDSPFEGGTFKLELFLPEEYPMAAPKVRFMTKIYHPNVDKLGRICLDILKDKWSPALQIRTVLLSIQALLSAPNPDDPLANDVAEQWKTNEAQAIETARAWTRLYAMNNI

[5] = molecular target: T2, Ubiquitin-conjugating enzyme E2 N; type: functional; remark: listed apart in the source
[6] = molecular target: T3, Heat shock factor protein 1 (Mus musculus, UniProt P38532); experiment: HSF1 potentiators in luciferase reporter cells, confirmation, cell-based, NIH3T3, luminescence, dose retest (AID 435004); type: functional;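 further: stress induced by proteasome inhibitor MG132 added 30 min after compound; luciferase reporter driven by HSF1 response element in NIH3T3 cells; actives raise luminescence as potentiators of the MG132 stress response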
T3 sequence (P38532 whole entry): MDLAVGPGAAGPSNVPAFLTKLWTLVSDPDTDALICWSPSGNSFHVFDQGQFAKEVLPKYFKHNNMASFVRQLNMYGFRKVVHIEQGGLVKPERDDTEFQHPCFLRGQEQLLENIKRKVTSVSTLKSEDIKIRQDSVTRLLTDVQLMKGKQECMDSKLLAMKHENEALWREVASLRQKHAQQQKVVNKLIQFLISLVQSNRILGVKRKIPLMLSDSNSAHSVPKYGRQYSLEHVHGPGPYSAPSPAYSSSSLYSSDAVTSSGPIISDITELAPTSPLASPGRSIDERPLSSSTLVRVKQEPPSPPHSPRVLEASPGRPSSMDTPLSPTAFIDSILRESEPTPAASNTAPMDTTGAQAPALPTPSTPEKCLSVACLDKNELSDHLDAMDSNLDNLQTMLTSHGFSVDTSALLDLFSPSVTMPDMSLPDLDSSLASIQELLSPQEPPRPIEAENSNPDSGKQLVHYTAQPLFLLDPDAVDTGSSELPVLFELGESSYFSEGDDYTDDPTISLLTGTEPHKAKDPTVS

[7] = system: HT-1080; experiment: cytotoxicity in HT1080 fibrosarcoma cells, cell-based, fluorescence readout (AID 620); type: functional; conditions: Homo sapiens
[8] = molecular target: Luciferin 4-monooxygenase (Photinus pyralis, UniProt P08659); experiment: Counter Screen for Luciferase-based Assay Positives. [Related pubchem assays: 620, 618, 411 ]
Luciferin 4-monooxygenase, sequence (P08659 whole entry): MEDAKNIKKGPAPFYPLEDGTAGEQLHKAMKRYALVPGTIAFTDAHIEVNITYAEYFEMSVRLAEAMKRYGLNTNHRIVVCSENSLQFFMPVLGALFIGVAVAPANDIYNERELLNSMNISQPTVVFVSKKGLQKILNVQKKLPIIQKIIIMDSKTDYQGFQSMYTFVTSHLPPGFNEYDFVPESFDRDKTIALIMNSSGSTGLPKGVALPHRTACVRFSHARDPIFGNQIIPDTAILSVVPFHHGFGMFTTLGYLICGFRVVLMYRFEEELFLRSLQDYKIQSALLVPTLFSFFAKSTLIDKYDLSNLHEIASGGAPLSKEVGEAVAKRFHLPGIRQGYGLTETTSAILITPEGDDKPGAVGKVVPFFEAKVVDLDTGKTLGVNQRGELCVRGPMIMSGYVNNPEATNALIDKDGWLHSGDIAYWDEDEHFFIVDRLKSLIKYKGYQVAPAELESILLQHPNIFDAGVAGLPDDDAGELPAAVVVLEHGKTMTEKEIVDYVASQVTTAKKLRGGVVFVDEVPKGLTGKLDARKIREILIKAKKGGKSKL

[9] = molecular target: T4, Protein skinhead-1 (Caenorhabditis elegans, UniProt P34707); type: functional
T4 sequence (P34707 whole entry): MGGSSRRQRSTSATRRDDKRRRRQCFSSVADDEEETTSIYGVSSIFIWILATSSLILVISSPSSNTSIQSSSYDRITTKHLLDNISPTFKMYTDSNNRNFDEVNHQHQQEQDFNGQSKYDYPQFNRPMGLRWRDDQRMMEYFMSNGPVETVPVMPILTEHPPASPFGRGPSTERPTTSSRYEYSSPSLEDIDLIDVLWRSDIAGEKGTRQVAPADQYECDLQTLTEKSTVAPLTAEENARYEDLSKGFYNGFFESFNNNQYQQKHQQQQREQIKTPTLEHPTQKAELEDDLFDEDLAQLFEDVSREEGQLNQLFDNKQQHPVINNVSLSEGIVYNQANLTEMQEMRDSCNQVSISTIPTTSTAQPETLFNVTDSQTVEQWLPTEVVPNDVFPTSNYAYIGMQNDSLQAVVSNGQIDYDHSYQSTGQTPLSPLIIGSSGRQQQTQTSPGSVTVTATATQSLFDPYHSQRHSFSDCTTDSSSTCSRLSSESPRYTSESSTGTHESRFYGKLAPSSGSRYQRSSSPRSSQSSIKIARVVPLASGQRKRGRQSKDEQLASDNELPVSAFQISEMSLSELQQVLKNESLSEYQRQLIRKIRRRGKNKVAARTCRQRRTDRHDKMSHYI

[10] = molecular target: T5, Alkaline phosphatase, tissue-nonspecific isozyme (Homo sapiens, UniProt P05186); experiment: human TNAP enzyme inhibitors, SAR follow-up, biochemical, luminescent, dose response (AID 1056)
T5 sequence (P05186 whole entry): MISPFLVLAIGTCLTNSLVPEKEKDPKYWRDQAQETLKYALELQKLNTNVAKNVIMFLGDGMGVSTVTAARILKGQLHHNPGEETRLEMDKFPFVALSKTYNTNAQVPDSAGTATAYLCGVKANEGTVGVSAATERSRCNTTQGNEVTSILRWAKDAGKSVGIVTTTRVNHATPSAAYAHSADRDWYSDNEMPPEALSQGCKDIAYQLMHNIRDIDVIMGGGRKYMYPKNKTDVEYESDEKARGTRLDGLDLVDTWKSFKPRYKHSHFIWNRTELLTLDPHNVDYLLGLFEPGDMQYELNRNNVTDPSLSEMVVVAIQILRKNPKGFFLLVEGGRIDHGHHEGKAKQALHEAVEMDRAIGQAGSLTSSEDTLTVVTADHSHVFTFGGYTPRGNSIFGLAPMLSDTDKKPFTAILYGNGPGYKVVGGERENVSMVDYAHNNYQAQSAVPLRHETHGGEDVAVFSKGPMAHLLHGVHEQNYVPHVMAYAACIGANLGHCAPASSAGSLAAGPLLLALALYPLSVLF

[11] = molecular target: Glyceraldehyde-3-phosphate dehydrogenase (Homo sapiens, UniProt P04406)
Glyceraldehyde-3-phosphate dehydrogenase, sequence (P04406 whole entry): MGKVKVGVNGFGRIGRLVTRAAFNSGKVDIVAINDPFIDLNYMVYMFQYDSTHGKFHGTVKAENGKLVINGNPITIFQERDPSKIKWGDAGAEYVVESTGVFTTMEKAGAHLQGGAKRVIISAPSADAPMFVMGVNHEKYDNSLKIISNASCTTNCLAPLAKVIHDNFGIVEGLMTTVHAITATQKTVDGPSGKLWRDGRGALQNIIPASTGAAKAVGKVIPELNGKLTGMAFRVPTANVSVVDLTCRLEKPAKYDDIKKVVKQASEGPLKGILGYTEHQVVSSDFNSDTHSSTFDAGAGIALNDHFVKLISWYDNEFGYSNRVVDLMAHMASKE

[12] = molecular target: T6, DNA dC->dU-editing enzyme APOBEC-3G (Homo sapiens, UniProt Q9HC16); type: functional
T6 sequence (Q9HC16 whole entry): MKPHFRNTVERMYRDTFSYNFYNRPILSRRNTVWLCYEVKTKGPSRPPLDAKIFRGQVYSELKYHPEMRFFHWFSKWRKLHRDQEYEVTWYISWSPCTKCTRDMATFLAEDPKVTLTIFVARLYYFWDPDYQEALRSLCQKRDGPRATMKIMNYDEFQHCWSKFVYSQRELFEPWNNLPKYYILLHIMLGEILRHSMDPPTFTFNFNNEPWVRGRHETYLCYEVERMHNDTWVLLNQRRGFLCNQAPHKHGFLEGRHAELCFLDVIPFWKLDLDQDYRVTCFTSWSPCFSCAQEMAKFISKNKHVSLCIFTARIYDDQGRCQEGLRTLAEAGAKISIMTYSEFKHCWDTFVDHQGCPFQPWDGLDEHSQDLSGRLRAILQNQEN

[13] = molecular target: T7, DNA dC->dU-editing enzyme APOBEC-3A (Homo sapiens, UniProt P31941); experiment: Dose Response confirmation of small molecule APOBEC3A DNA Deaminase Inhibitors via a fluorescence-based single-stranded DNA deaminase assay. [Related pubchem assays (depositor defined):AID493011, AID493024]; type: functional
T7 sequence (P31941 whole entry): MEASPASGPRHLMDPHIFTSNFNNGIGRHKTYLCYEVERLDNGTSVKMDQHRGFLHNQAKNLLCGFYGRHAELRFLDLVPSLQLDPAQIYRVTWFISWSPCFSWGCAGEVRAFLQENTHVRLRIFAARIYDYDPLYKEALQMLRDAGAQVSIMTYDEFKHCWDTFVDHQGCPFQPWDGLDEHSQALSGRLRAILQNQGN

[14] = molecular target: T6, DNA dC->dU-editing enzyme APOBEC-3G; experiment: Dose Response confirmation of small molecule APOBEC3G DNA Deaminase Inhibitors via a fluorescence-based single-stranded DNA deaminase assay. [Related pubchem assays (depositor defined):AID493012, AID493028]; type: functional
[15] = molecular target: T7, DNA dC->dU-editing enzyme APOBEC-3A; experiment: APOBEC3A DNA deaminase inhibitors, dose response, biochemical (AID 504722); type: functional
[16] = inhibitors of SNCA 5'UTR-driven reporter translation, confirmation, H4 neuroglioma cells, luminescence (AID 1988); type: functional, cell-based
[17] = Luminescence Cell-Based Dose Response HTS to Identify Inhibitors of 5'UTR Stem-Loop Driven Prion Protein mRNA Translation in H4 Neuroglioblastoma Cells. [Related pubchem assays: 1827 (Project Summary), 1813 (Primary HTS)]; type: functional
[18] = molecular target: T8, Aminopeptidase N (Plasmodium falciparum FcB1/Columbia, UniProt O96935); experiment: P. falciparum M1AAP inhibitors, biochemical, fluorogenic H-Leu-NHMec substrate, 1536-well (AID 1445); set-up: species or system Plasmodium falciparum 3D7, 3D7
T8 sequence (O96935 whole entry): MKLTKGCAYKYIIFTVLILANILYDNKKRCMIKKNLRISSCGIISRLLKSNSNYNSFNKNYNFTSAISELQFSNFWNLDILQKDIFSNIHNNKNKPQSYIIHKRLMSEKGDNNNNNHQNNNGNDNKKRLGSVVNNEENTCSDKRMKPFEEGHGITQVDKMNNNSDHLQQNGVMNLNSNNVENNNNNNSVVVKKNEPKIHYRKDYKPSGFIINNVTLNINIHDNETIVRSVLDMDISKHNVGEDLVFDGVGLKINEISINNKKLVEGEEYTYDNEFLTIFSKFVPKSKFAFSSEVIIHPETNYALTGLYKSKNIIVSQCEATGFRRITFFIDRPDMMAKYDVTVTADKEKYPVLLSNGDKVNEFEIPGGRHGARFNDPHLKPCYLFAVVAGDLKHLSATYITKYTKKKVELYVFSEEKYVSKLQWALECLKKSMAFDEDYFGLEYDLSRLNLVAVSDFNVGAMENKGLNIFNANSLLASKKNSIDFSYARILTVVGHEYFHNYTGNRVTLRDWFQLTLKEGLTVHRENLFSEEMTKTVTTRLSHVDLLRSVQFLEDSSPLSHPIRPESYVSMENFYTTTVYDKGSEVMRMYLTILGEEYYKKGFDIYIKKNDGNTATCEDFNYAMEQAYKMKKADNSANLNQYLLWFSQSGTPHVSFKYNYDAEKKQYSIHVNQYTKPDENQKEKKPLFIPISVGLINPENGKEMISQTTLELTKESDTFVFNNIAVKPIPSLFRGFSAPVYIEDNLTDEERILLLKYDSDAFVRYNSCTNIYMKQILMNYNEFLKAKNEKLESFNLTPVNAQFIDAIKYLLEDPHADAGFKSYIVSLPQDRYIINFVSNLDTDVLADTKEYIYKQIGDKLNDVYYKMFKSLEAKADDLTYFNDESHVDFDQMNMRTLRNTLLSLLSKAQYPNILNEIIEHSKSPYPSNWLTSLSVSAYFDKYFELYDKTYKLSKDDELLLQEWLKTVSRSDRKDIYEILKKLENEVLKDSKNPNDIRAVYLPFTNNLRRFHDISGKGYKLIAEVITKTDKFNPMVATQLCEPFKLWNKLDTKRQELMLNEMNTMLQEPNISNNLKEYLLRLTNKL

[19] = molecular target: Large T antigen (Simian virus 40, UniProt P03070); type: functional, Betapolyomavirus macacae;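 further: Confirmatory-stage PubChem screen for compounds that inhibit SV40 T antigen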
Large T antigen, sequence (P03070 whole entry): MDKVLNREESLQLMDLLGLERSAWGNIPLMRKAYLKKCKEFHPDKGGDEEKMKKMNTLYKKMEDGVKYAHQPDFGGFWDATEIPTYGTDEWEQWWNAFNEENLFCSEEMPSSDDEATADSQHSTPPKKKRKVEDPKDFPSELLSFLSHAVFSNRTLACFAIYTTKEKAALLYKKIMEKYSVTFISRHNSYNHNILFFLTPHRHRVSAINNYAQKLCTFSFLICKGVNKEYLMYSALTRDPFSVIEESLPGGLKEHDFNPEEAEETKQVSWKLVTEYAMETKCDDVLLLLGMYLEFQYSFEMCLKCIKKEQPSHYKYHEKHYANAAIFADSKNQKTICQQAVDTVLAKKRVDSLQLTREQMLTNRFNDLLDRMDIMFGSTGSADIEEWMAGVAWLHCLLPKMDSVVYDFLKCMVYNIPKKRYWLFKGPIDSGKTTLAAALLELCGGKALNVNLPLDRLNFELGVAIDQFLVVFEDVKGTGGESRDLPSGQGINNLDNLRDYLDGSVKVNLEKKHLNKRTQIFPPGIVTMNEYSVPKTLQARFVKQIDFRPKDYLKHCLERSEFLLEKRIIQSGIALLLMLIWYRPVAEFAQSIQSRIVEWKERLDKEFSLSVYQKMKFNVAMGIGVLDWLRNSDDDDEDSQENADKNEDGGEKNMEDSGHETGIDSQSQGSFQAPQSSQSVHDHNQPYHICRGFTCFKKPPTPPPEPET

[20] = cytotoxicity toward NIH3T3 fibroblasts, dose response, counter-screen, cell-based, ATP luminescence, mouse fibroblasts (AID 2010); type: functional;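 further: cells exposed to compound for about 90 hours before reading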
[21] = molecular target: Genome polyprotein (dengue virus type 2, UniProt P29990); experiment: Dengue-2 NS5 methyltransferase inhibitors, primary screen, biochemical, confirmation dose response (AID 588689); type: functional
Genome polyprotein, sequence (P29990 2492-3391 limits assumed): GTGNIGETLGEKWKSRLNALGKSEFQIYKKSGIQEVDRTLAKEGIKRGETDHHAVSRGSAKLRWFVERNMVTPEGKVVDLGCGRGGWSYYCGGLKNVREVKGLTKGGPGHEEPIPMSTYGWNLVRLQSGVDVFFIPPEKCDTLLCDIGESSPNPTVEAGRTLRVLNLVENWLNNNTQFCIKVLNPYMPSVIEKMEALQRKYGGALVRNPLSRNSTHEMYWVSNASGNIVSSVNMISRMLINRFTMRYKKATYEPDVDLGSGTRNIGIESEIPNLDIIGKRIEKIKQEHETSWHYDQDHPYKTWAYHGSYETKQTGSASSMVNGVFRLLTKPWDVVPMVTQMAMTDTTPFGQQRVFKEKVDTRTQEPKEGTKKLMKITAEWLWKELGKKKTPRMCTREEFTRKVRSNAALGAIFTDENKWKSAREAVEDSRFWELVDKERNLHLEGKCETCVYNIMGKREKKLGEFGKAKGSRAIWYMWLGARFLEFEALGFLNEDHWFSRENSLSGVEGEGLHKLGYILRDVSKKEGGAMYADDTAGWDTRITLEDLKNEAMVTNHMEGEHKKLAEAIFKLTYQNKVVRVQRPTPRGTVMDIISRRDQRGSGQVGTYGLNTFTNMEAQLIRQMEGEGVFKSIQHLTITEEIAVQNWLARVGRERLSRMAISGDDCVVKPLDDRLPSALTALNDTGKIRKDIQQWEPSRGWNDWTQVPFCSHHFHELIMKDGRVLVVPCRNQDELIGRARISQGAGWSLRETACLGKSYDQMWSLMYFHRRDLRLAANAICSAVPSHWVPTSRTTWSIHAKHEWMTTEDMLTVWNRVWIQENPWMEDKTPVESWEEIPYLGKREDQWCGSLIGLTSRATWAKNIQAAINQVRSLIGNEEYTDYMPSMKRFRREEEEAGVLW

[22] = inhibitors of intracellular T. cruzi replication, confirmation, NIH3T3 host cells, beta-gal luminescence (AID 2044); type: functional, cell-based;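 further: intracellular parasites grown in NIH/3T3 mouse fibroblasts as host cells; luminescent beta-galactosidase reporter signal from transgenic T. cruzi replicating inside host cells; inhibitors lower the luminescence signal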
[23] = THP-1 cell cytotoxicity, dose response, cytotoxicity control for non-replicating M. tuberculosis project (AID 489025); type: functional

G-protein coupled receptor 55, sequence (Q9Y2T6 whole entry): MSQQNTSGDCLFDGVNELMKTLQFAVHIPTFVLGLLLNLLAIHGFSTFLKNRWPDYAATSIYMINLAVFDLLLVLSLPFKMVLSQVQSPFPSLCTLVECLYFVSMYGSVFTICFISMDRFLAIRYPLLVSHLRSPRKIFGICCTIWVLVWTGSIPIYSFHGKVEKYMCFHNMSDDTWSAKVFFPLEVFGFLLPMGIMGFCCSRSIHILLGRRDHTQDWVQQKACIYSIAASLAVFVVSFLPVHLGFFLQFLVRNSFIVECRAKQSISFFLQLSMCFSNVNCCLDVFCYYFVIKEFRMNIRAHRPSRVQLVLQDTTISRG

## O=C(Nc1ccccc1Cl)c1ccccc1Oc1ccc(C(F)(F)F)cc1[N+](=O)[O-]
[1]
  IC50: 3.31 µM (active)
[2]
  IC50: > 66.6 µM (inactive)

## CN1CCN(C(=O)CCN2C(=O)/C(=C/c3ccccc3Cl)SC2=S)CC1
[3]
  IC50: > 20 µM (inactive)
[4]
  IC50: 17.8 µM (active)
[5]
  IC50: > 20 µM (inactive)

## COc1ccccc1NC(=O)CN1CCC(n2nnc3cc(F)ccc32)CC1
[3]
  IC50: > 20 µM (inactive)
[4]
  IC50: 15.4 µM (active)
[5]
  IC50: 17.8 µM (active)

## CCCc1cc(C(=O)Nc2nccs2)cs1
[6]
  EC50: > 260 µM (inconclusive)
[7]
  EC50: > 50 µM (not active)
[8]
  EC50: < 0.2 µM (active)
[9]
  IC50: > 100 µM (inactive)

## O=C1OC(c2ccc(O)cc2)(c2ccc(O)cc2)c2ccccc21 [PHENOLPHTHALEIN]
[1]
  IC50: 6.67 µM (active)

## CC(=O)Nc1nc(SCCCc2ccccc2)n[nH]1
[10]
  IC50: 6 µM (active)
[11]
  IC50: > 100 µM (not active)

## CCc1cccc(NC(=O)C[n+]2c3n(c4ccc(C(F)(F)F)cc42)CCCCC3)c1
[12]
  IC50: 5.22 µM (active)
[13]
  IC50: 2.69 µM (active)

## COc1cc(C2Nn3c(nnc3-c3ccccc3OC)S2)ccc1O (stereo not given)
[14]
  IC50: 3.57 µM (active)
[15]
  IC50: > 100 µM (inactive)

## COc1ccc(Cc2nnc(N3C(=O)c4ccccc4C3=O)[nH]2)cc1
[10]
  IC50: > 100 µM (inactive)
[11]
  IC50: > 100 µM (not active)

## COc1ccc(C(CC(=O)N2CCOCC2)c2c(OC)cc(OC)c3c(-c4ccccc4)cc(=O)oc23)cc1 (stereo not given)
[12]
  IC50: 50.9 µM (active)
[13]
  IC50: 17 µM (active)

## O=C(CCCOc1ccccc1)N1CCCCC1
[16]
  EC50: 8.68 µM (active)
[17]
  EC50: 8.9 µM (active)
[7]
  EC50: > 50 µM (not active)
[8]
  EC50: < 0.2 µM (active)

## O=C(O)c1cc(S(=O)(=O)Nc2ccc3oc(=O)sc3c2)ccc1O
[18]
  IC50: 70.9 µM (active)
[19]
  IC50: 33.3 µM (active)

## Cc1ccc(NS(=O)(=O)c2ccc3[nH]c(=O)c(=O)[nH]c3c2)cc1Cl
[18]
  IC50: 41.9 µM (active)

## O=C(COc1ccccc1/C=C\c1nc(O)nc(O)c1[N+](=O)[O-])Nc1ccccc1
[18]
  IC50: 42.9 µM (active)
[20]
  EC50: > 60 µM (not active)
[21]
  IC50: 39.9 µM (active)
[22]
  EC50: > 60 µM (not active)

## COc1ccc(-c2nnc(SCC(=O)Nc3cc(S(=O)(=O)N4CCCCC4)ccc3Cl)n2N)cc1
[18]
  IC50: 39.3 µM (active)

## CCN(CC)C(=O)c1ncn(C)c1C(=O)N(CC)CC
[12]
  IC50: 3.23 µM (active)
[13]
  IC50: 3.51 µM (active)

## COc1ccc(O)c(C(=O)CC(=O)c2ccc(F)cc2)c1
[7]
  EC50: > 50 µM (not active)
[8]
  EC50: 0.35 µM (active)
[23]
  CC50: > 40 µM (active)

## CC(=O)c1ccc(OCC(O)CN2CCN(CCN3C(=O)c4cccc5cccc(c45)C3=O)CC2)cc1 (stereo not given)
[3]
  IC50: > 20 µM (inactive)
[4]
  IC50: 4.79 µM (active)
[5]
  IC50: 4.17 µM (active)

## O=[N+]([O-])c1ccc(/C=N/n2c(S)nnc2-c2cccnc2)cc1
[14]
  IC50: 2.3 µM (active)
[15]
  IC50: > 100 µM (inactive)
